Experimental data: US7582652B2, “Kinase inhibitors” (Eli Lilly and Company, priority 2004, dated 2009)

Assays:
[1] = tested on: collagen induced arthritis (ankle diameter); assay: Rat collagen induced arthritis efficacy model; assay type: in vivo, female Lewis rats; conditions: PO bid x 14 days, AUC of composite inflammation scores
Experimental: Rat Collagen Induced Arthritis Efficacy Model
Female Lewis rats (≅190 g, Charles River Labs) are immunized with Bovine type II collagen (2 mg/mL) emulsified with an equal volume of adjuvant (aluminum hydroxide). […]. The rats are immunized with approximately […] of the emulsion intradermally on the back near the base of the tail. All animals are re-immunized 7 days later according to the same protocol. The rats begin to develop arthritis (characterized by swelling and redness of one or both ankles) from 12 to 14 days after the first immunization. The rats are equally distributed into five treatment groups at the first signs of arthritis and treatment is initiated with each rat dosed bid for 14 days.
Ankle diameter is measured with calipers 5 days a week and recorded. Data is expressed as the area under the curve (AUC) generated from the composite inflammation scores and statistical analysis performed.

[2] = tested on: TNF-α synthesis in synovial lavage fluid; assay: Effect on intra-articular LPS induced TNF-α; assay type: in vivo, female Lewis rats
Experimental: Effect on Intra-articular LPS Induced TNF-α
Intra-articular injection of LPS into rat ankles induces the synthesis of TNF-α, which can be measured in synovial lavage fluid. High levels of TNF-α are detectable within 2 hours. Since the joint is the site where arthritis develops, this model can rapidly determine whether an orally administered compound has an effect on an inflammatory response in the synovium.
Six female Lewis rats (150-200 g) are place in each treatment group. The animals are given vehicle (1% NaCarboxymethylcellulose-0.25% Tween 80) or test compound (1 mg/kg, 3 mg/kg, 10 mg/kg, and 30 mg/kg) orally. One hour later, 10 μl LPS (10 μg) is administered intra-articularly into the right ankle of each rat, while the left ankle receives 10 μL of saline. After two hours, each ankle is lavaged with 100 μL of saline. The lavage is collected and stored at −80° C. • Group#1: Vehicle (1% NaCMC-0.25% Tween 80, 1 mL, PO) • Group#2: Test compound (1 mg/kg, 1 mL, PO) • Group#3: Test compound (3 mg/kg, 1 mL, PO) • Group#4: Test compound (10 mg/kg, 1 mL, PO) • Group#5: Test compound (30 mg/kg, 1 mL, PO)
TNF-α is measured with a commercially available ELISA kit (R&D, RTA00).

TNF-α = assay: Inhibition of TNF-α in vivo (LPS-challenged mice); design: species or system female Balb/c mice; conditions: p.o., LPS 5 mg/kg i.v. after 2 h, serum 1 h after LPS
Experimental: Compounds are administered p.o. (100, 30, 10 and 3 mg/kg) to female Balb/c mice (5 mice/dose). After 2 h, lipopolysaccharide (LPS, E. coli serotype 0111:B4, 5 mg/kg) is administered i.v. in the tail vein of each mouse. One hour after LPS administration the mice are asphyxiated by CO2 inhalation and bled out via cardiac puncture.
TNF-α/Luminex Detection Assay (Bio-Rad Bio-Plex Kit—Catalog #171-G12221)
Reconstitute the lyophilized premixed TNF-α standard (1 standard tube/two 96-well plates) with 50 μL sterile water (500,000 pg/mL). Gently vortex for 5 seconds, incubate on ice for 30 min, and vortex for 5 seconds before use. Label a set of twelve 1.5 mL tubes with #1-thru #12 and then add the amounts of cell media shown below to the appropriate tubes (standard concentrations are as follows: 50,000; 25,000; 12,500; 6,250; 3,125; 1,562.5; 781.3; 390.6; 195.3; 97.7; 48.8; and 24.4 pg/mL). Vortex the premixed anti-cytokine conjugated beads (25×) vigorously for 30 seconds. Dilute the anti-cytokine conjugated beads to a 1× concentration using 1× Bio-Plex Assay Buffer. […] Read standards and samples on Luminex machine. These intensity readings are then converted to picogram/milliliter units based on a 12-point standard curve created in duplicate using a four-parameter logistic regression method (Bio-Plex Manager 2.0, Bio-Rad), and the IC50 calculated. […]

- IC50 (suppressed TNF-α in vivo) (TNF-α): < 1 mg/kg
Compound: CC(C)(C)Cn1c(N)nc2ccc(-c3nc(C(C)(C)C)[nH]c3-c3ccc(F)cc3)nc21.CS(=O)(=O)O.CS(=O)(=O)O [EXAMPLE 104, Crystalline 5-[2-tert-Butyl-5-(4-fluoro-phenyl)-1H-imidazol-4-yl]-3-(2,2-dimethyl-propyl)-3H-imidazo[4,5-b]pyridin-2-ylamine dimethanesulfonate]
- TMED50 [1]: 1.5 mg/kg (b.i.d.)
- inhibition of TNF-α synthesis (in words) ([2]; oral 1, 3, 10, 30 mg/kg): dose-dependent inhibition
- TMED50 (inhibition of TNF-α synthesis) ([2]; oral, LPS intra-articular 1 h later, ankle lavage after 2 h): 0.54 mg/kg
